Laboratory results: US12102659B2, “Methods for the prevention or treatment of heart failure” (Cornell University, priority 2009, dated 2024)
Square brackets hold non-standard residues; d marks the D form. Ends that are not written are not given here.

Tests used:
[1] = tested on: ANP, Collagen 1a2, PGC1-α, TFAM, NRF-1, NRF-2; assay: Quantitative PCR of cardiac gene expression after 4 weeks of Ang II; type: in vivo, mouse
Description: (§1) Mouse experiments, drug delivery, echocardiography and blood pressure measurement. All animal experiments were approved by the University of Washington Institutional Animal Care and Use Committee. C57BL6 mice were housed in a barrier specific pathogen-free facility. Six to ten mice were included in each experimental group (Saline, Ang II, Ang II+SS-31, WT, Gαq, Gαq+SS-31). A pressor dose of Ang II (1.1 mg/kg/d) was continuously administered for 4 weeks using subcutaneous Alzet 1004 osmotic minipumps, with or without addition of SS-31 (3 mg/kg/d). Echocardiography was performed at baseline and after 4 weeks of pump implantation using a Siemens Acuson CV-70 equipped with a 13 MHz probe. Under 0.5% isoflurane to reduce agitation, standard M-mode, conventional and Tissue Doppler images were taken, and functional calculations were performed according to American Society of Echocardiography guidelines. MP1 was calculated as the ratio of the sum of isovolemic contraction and relaxation time to LV ejection time. An increase in MPI is an indication that a greater fraction of systole is spent to cope with the pressure changes during the isovolemic phases. As a reference for SS-31 peptide effect in Ang II treated mice, a genetic mouse model of Rosa-26 inducible-mCAT was included, in which mitochondrial catalase was overexpressed two weeks before Ang II treatment.
(§2) Quantitative PCR. Gene expression was quantified by quantitative real time PCR using an Applied Biosystems 7900 themocycler with Taqman Gene Expression Assays on Demand, which included: PGC1-α (Mm00731216), TFAM (Mm00447485), NRF-1 (Mm00447996), NRF-2 (Mm00487471), Collagen 1a2 (Mm00483937), and ANP (Mm01255747). Expression assays were normalized to 18S RNA.

[2] = tested on: C57BL6 mice; assay: Quantitative pathology of ventricular fibrosis (Masson Trichrome) after 4 weeks of Ang II; type: in vivo, mouse; conditions: SS-31 3 mg/kg/d with Ang II, 4 weeks
Description: as §1, with “As a reference for SS-31 peptide effect in Ang II treated mice, a genetic mouse model of Rosa-26 inducible-mCAT was included, in which mitochondrial catalase was overexpressed two weeks before Ang II treatment.” left out
Quantitative Pathology. […] Quantitative analysis of fibrosis was performed by measuring the percentage of blue-staining fibrotic tissue relative to the total cross-sectional area of the ventricles.

[3] = tested on: C57BL6 mice; assay: Blood pressure by intravascular telemetry after pressor dose of Ang II; type: in vivo, mouse; conditions: SS-31 3 mg/kg/d simultaneously with Ang II 1.1 mg/kg/d
Description: as §1
Blood pressure was measured in a separate group of mice by telemetry using an intravascular catheter PA-C10 (DSI, MN), in which measurement was performed every three hours starting from 2 days before pump placement until 2 days after Ang pump placement.

[4] = tested on: NADPH oxidase; assay: NADPH oxidase activity in ventricular protein extract after 4 weeks of Ang II; type: in vivo, mouse; conditions: 4 weeks Ang II (vs. saline) or Ang II + SS-31 (vs. Ang II)
Description: as §1, with “An increase in MPI is an indication that a greater fraction of systole is spent to cope with the pressure changes during the isovolemic phases. As a reference for SS-31 peptide effect in Ang II treated mice, a genetic mouse model of Rosa-26 inducible-mCAT was included, in which mitochondrial catalase was overexpressed two weeks before Ang II treatment.” left out
NADPH Oxidase activity. […] In brief, […] of ventricular protein extract was incubated with dihydroethidium (DHE, 10 μM), sperm DNA (1.25 μg/ml), and NADPH (50 μM) in PBS/DTPA (containing 100 μM DTPA), The assay was incubated at 37° C. in the dark for 30 min and the fluorescence was detected using excitation/emission of 490/580 nm.

[5] = tested on: cleaved caspase-3, phospho-p38 MAP kinase, p38; assay: Western immunoblots of cardiac protein extracts after 4 weeks of Ang II; type: in vivo, mouse
Description: as §1
Western Immunoblots. Cardiac protein extracts were prepared by homogenization in lysis buffer containing protease and phosphatase inhibitors on ice (1.5 mM KCl, 50 mM Tris HCl, 0.125% Sodium deoxycholate, 0.375% Triton X 100, 0.15% NP40, 3 mM EDTA). The samples were sonicated and centrifuged at 10,000 g for 15 min in 4° C. The supernatant was collected and the concentration was determined using a BCA assay (Pierce Thermo Scientific, Rockford, IL). Total protein (25 μg) was separated on NuPAGE 4-12% Bis-Tris gel (Invitrogen) and transferred to 0.45 μm PVDF membrane (Millipore), and then blocked in 5% non-fat dry milk in Tris-buffer solution with 0.1% Tween-20 for 1 hour. Primary antibodies were incubated overnight, and secondary antibodies were incubated for 1 hour. The primary antibodies included: rabbit monoclonal anti-cleaved caspase-3 (Cell Signaling), mouse monoclonal anti-GAPDH (Millipore), rabbit polyclonal phospho-p38 MAP kinase (Cell Signaling), and mouse monoclonal anti-p38 (Santa Cruz Biotechnology). The enhanced chemiluminescence method (Thermo Scientific) was used for detection. Image Quant ver.2.0 was used to quantified the relative band density as a ratio to GAPDH (internal control). All samples were normalized to the same cardiac protein sample.

[6] = target: mu-opioid receptor (Homo sapiens, UniProt P35372); assay: mu-opioid receptor agonist activity (stated, no method); type: biochemical; conditions: stated in the description, no test described
[7] = tested on: mitochondrial protein carbonyl groups; assay: Cardiac mitochondrial protein carbonyl ELISA after 4 weeks of Ang II; type: in vivo, mouse; conditions: 4 weeks Ang II (vs. saline) or Ang II + SS-31 (vs. Ang II)
Description: as §1, with “treatment. […]” for “treatment.”

[8] = tested on: C57BL6 mice; assay: Ang II-induced cardiomyopathy: echocardiography and heart weight after 4 weeks; type: in vivo, mouse
Description: as §1

[9] = tested on: Gαq overexpressing mice; assay: Gαq overexpression-induced heart failure: echocardiography, organ weights, fibrosis, qPCR, protein carbonyls; type: in vivo, mouse
Description: as §1
Quantitative Pathology. Ventricular tissues were cut into transverse slices, and subsequently embedded with paraffin, sectioned, and subjected to Masson Trichrome staining. Quantitative analysis of fibrosis was performed by measuring the percentage of blue-staining fibrotic tissue relative to the total cross-sectional area of the ventricles.
Measurement of mitochondrial protein carbonyl groups. For mitochondrial protein extraction, ventricular tissues were homogenized in mitochondrial isolation buffer (1 mM EGTA, 10 mM HEPES, 250 mM sucrose, 10 mM Tris-HCl, pH 7.4). The lysates were centrifuged for 7 min at 800 g in 4° C. The supernatants were then centrifuged for 30 min at 4000 g in 4° C. The crude mitochondria pellets were resuspended in small volume of mitochondrial isolation buffer, sonicated on ice to disrupt the membrane, and treated with 1% streptomycin sulfate to precipitate mitochondrial nucleic acids. The OxiSelect™ Protein Carbonyl ELISA Kit (Cell Biolabs) was used to analyze 1 μg of protein sample per assay. The ELISA was performed according to the instruction manual, with slight modification. Briefly, protein samples were reacted with dinitrophenylhydrazine (DNPH) and probed with anti-DNPH antibody, followed by HRP conjugated secondary antibody. The anti-DNPH antibody and HRP conjugated secondary antibody concentrations were 1:2500 and 1:4000, respectively.
as §2

[10] = tested on: neonatal cardiomyocytes; assay: Mitosox flow cytometry of mitochondrial ROS in neonatal cardiomyocytes stimulated with Ang II; type: cell-based, mouse; conditions: SS-31 1 nM or NAC 0.5 mM together with Ang II 1 μM for 3 hours
Description: Neonatal mouse cardiomyocyte culture and flow cytometry. Ventricles from mouse neonates younger than 72 hours were dissected, minced, and enzymatically digested with Blendzyme 4 (45 μg/ml, Roche). After enzymatic digestion, cardiomyocytes were enriched using differential pre-plating for 2 hours, then seeded on fibronectin-coated culture dishes for 24 hours in DMEM (Gibco), with 20% Fetal Bovine Serum (Sigma) and 25 μM Arabinosylcytosine (Sigma). Cardiomyocytes were stimulated with Angiotensin II (1 μM) for 3 hours in serum-free DMEM containing 0.5% insulin transferrin-selenium (Sigma), 2 mM glutamine, and 1 mg/ml of BSA. Cardiomyocytes were simultaneously treated with either of the following: SS-31 (1 nM), N-acetyl cysteine (NAC: 0.5 mM), or PBS control. To measure mitochondrial superoxide concentration, Mitosox (5 μM) was incubated for 30 min at 37° C. to load cardiomyocytes, followed by 2 washes, with Hanks Balanced Salt Solution. Samples were analyzed using excitation/emission of 488/625 nm by flow cytometry. Flow data was analyzed using FCS Express (De Novo Software, Los Angeles, CA), and presented as histogram distributions of Mitosox fluorescence intensity.

[11] = 4 weeks Ang II (vs. saline) or Ang II + SS-31 (vs. Ang II)
[12] = SS-31 3 mg/kg/d with Ang II, 4 weeks
[13] = 4 weeks Ang II 1.1 mg/kg/d with or without SS-31 3 mg/kg/d
[14] = 4 weeks of Ang II, in the presence or absence of SS-31
[15] = Ang+SS-31 (3 mg/kg/d) vs. Ang, 4 weeks
[16] = Gαq mice, SS-31 3 mg/kg/d for 4 weeks

Chain of mu-opioid receptor (P35372 whole entry, species assumed): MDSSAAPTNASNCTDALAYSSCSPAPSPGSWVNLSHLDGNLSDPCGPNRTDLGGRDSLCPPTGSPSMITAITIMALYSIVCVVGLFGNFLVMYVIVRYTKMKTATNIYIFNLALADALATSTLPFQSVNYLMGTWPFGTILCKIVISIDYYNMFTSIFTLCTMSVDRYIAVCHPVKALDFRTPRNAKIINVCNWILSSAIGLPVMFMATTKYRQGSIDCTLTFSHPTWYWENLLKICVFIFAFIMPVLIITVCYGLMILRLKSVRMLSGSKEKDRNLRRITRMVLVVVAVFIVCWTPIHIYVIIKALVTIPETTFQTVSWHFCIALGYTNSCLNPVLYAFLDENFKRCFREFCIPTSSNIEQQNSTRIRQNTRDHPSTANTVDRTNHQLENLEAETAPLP

D-Arg-2′,6′-Dmt-Lys-Phe-NH2 [SS-31]
expression of PGC-1α and downstream target genes TFAM, NRF-1 and NRF-2 [1, 11]: fully prevent the upregulation
effect on Ang II-induced ANP gene expression [1, 12]: almost completely protected
effect on Ang II-induced Coll1a2 gene expression [1, 12]: almost fully attenuated
effect on Ang II-induced ventricular fibrosis [2]: fully attenuated
effect on blood pressure [3]: did not show any effect
cardiac NADPH oxidase activity [4]: not changed
phosphorylation of p38 MAPK [5, 11]: significantly and nearly fully attenuated
effect on activation of caspase-3 caused by Ang II [5, 12]: completely prevented
mu-opioid receptor agonist activity [6]: does not have mu-opioid receptor agonist activity
ventricular mitochondrial protein carbonyl content [7]: significantly reduced
Ea/Aa [8, 13]: 1.17±0.11
LVMI [8, 13]: 4.21 ± 0.17 mg/g
heart weight (normalized to tibia length) ([8]; 4 weeks Ang II with or without SS-31, saline 5.3±0.18): 6.05±0.135 mg/mm
change in LV end diastolic diameter (LVEDD) [8, 14]: not significantly changed
change in fractional shortening (FS, systolic function) [8, 14]: not significantly changed
better preservation of Ea/Aa [8, 15]: 38%
reduction of LVMI [8, 15]: 33%
cardiac enlargement (normalized heart weight) ([9]; Gαq mice at 16 weeks of age, SS-31 3 mg/kg/d for 4 weeks): substantially reduced
increase in lung weights (lung congestion) ([9]; Gαq mice at 16 weeks of age, SS-31 3 mg/kg/d for 4 weeks, borderline significance p=0.09): slightly attenuated
cardiac expression of Coll1a2 gene ([9]; Gαq mice, 4 weeks of SS-31 treatment): not significantly altered
Gαq overexpression-induced heart failure (phenotype overall) [9, 16]: partially rescued
cardiac mitochondrial protein carbonyls [9, 16]: significant reduction
ventricular fibrosis [9, 16]: not changed
myocardial performance (MPI) ([9]; Gαq mice, SS-31 3 mg/kg/d from 12 to 16 weeks of age): improved
systolic function (FS) ([9]; Gαq mice, SS-31 3 mg/kg/d from 12 to 16 weeks of age, vs. untreated Gαq): significantly ameliorated
Ea/Aa (diastolic function) ([9]; Gαq mice, SS-31 3 mg/kg/d from 12 to 16 weeks of age, borderline significance p=0.06): better preserved
LV chamber enlargement ([9]; Gαq mice, SS-31 3 mg/kg/d from 12 to 16 weeks of age, p=0.08): slightly reduced
effect on Ang II-induced Mitosox fluorescence / mitochondrial ROS [10]: reduced Ang II-induced mitosox fluorescence to the level similar to that of saline treated cardiomyocytes

F[dR]FK-NH2 [SS-20]
mu-opioid receptor agonist activity [6]: does not have mu-opioid receptor agonist activity

Tyr-D-Arg-Phe-Lys-NH2 [SS-01]
mu-opioid receptor agonist activity [6]: has mu-opioid receptor agonist activity
